Experimental data from ChEMBL document CHEMBL1132054, “Synthesis and properties of 2-(naphthosultamyl)methyl-carbapenems with potent anti-MRSA activity: discovery of L-786,392” (Bioorg Med Chem Lett, 1999).
Converted amounts (≈) assume the structure as drawn.

Key:
[1] = molecular target: T1, Dipeptidase 1 (Sus scrofa) (UniProt P22412); assay: Susceptibility to hog kidney dehydropeptidase-I.; type: functional, tissue-based; design: reference not given here
T1 sequence (whole entry): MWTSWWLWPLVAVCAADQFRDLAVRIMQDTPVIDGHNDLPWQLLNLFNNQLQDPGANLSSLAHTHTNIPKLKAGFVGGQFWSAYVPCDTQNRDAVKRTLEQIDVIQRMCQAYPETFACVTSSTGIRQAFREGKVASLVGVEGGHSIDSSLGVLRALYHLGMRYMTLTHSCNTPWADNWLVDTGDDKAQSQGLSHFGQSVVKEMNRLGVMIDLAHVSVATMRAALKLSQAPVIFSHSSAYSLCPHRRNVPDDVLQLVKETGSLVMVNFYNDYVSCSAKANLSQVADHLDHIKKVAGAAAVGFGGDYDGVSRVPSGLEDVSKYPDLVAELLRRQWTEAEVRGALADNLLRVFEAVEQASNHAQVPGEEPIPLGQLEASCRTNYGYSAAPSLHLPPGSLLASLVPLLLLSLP

[2] = tested on: Enterococcus faecium; assay: In vitro antibacterial activity against MDREFm.; type: functional
[3] = tested on: Enterococcus faecalis; assay: In vitro antibacterial activity against VREFs.; type: functional
[4] = tested on: Staphylococcus sp.; assay: In vitro antibacterial activity against MRCNS.; type: functional
[5] = tested on: Streptococcus pneumoniae; assay: In vitro antibacterial activity against PRSP.; type: functional
[6] = tested on: Staphylococcus aureus; assay: Effect of 43 mg/mL of Human Serum Albumin, Fraction V (HSA Fr. V) on antimicrobial activity was assessed against MSSA strain MB 2985; type: functional
[7] = tested on: Staphylococcus aureus; assay: Antibacterial activity against Methicillin sensitive Staphylococcus aureus-/+ HSA Fr. V; type: functional
[8] = tested on: Staphylococcus aureus; assay: In vitro antibacterial activity against MRSA.; type: functional
[9] = tested on: Staphylococcus aureus; assay: Antibacterial activity against Methicillin sensitive Staphylococcus aureus; type: functional
[10] = molecular target: T1, Dipeptidase 1 (Sus scrofa); assay: Compound was tested for susceptibility to hog kidney dehydropeptidase-I and expressed as a reaction rate normalized to the rate observed with imipenem (IPM); type: functional, tissue-based
[11] = organism: Mus musculus; assay: Dose showing no visible effects (ataxia, somnolence) in two mice; type: functional
[12] = Lethal dose defined as as the lowest dose resulting in the death of a single mouse; type: toxicity; conditions: in vivo
[13] = tested on: Enterococcus faecium; assay: Antibacterial activity against VREFs; type: functional
[14] = tested on: Staphylococcus aureus; assay: Effect of 43 mg/mL of Human Serum Albumin, Fraction V (HSA Fr. V) on antimicrobial activity was assessed against Methicillin sensitive Staphylococcus aureus strain MB 2985; type: functional
[15] = tested on: Enterococcus faecium; assay: Antibacterial activity against MDREFm; type: functional

Row | Compound | Activity [1] | MIC [2] [µg/mL] | MIC [3] [µg/mL] | MIC [4] [µg/mL] | MIC [5] [µg/mL] | MIC [6] [µg/mL] | MIC [7] [µg/mL] | MIC [8] [µg/mL] | MIC [9] [µg/mL] | Activity [10] | NOEL [11] [mg/kg] | Lethal dose [12] [mg/kg] | MIC [13] [µg/mL] | MIC [14] [µg/mL] | MIC [15] [µg/mL]
1 | C[C@@H](O)[C@H]1C(=O)N2C(C(=O)O)=C(CN3c4ccc(C[N+]56CC[N+](CC(N)=O)(CC5)CC6)c5cccc(c45)S3(=O)=O)[C@H](C)[C@H]12.[Cl-].[Cl-] | 0.81 | 32 | 32 | 12.1 | 1 | 0.125 | 0.031 | 4.2 | – | – | – | – | – | – | –
2 | CN[C@H](CC(C)C)C(=O)N[C@H]1C(=O)N[C@@H](CC(N)=O)C(=O)N[C@H]2C(=O)N[C@H]3C(=O)N[C@H](C(=O)N[C@H](C(=O)O)c4cc(O)cc(O)c4-c4cc3ccc4O)[C@H](O)c3ccc(c(Cl)c3)Oc3cc2cc(c3O[C@@H]2O[C@H](CO)[C@@H](O)[C@H](O)[C@H]2O[C@H]2C[C@](C)(N)[C@H](O)[C@H](C)O2)Oc2ccc(cc2Cl)[C@H]1O [VANCOMYCIN] | – | 20.2 (≈ 13.9 µM) | > 64 | 1.7 (≈ 1.17 µM) | 0.35 (≈ 0.242 µM) | – | – | 0.9 (≈ 0.621 µM) | – | – | – | – | – | – | –
3 | C[C@@H](O)[C@H]1C(=O)N2C(C(=O)[O-])=C(CN3c4cccc5cccc(c45)S3(=O)=O)[C@H](C)[C@H]12.[Na+] | 0.99 | 25.4 | 8 | 3.5 | 0.25 | 0.25 | – | 0.7 | 0.016 | – | – | – | – | – | –
4 | C[C@@H](O)[C@H]1C(=O)N2C(C(=O)O)=C(SCCNC=N)C[C@H]12 [IMIPENEM ANHYDROUS] | 1 | > 64 | 8 (≈ 26.7 µM) | > 64 | 0.25 (≈ 0.835 µM) | 0.016 (≈ 0.0534 µM) | 0.016 (≈ 0.0534 µM) | > 40 | – | – | – | – | – | – | –
5 | C[C@@H](O)[C@H]1C(=O)N2C(C(=O)O)=C(CN3c4cccc5c(CC[N+]67CC[N+](Cc8ccccc8)(CC6)CC7)ccc(c45)S3(=O)=O)[C@H](C)[C@H]12.[Cl-].[Cl-] | – | 6.4 | 8 | 1.3 | 0.35 | – | – | 0.9 | – | 1.85 | 63 | 250 | – | – | –
6 | C[C@@H](O)[C@H]1C(=O)N2C(C(=O)O)=C(CN3c4c(CC[N+]56CC[N+](CC(N)=O)(CC5)CC6)ccc5cccc(c45)S3(=O)=O)[C@H](C)[C@H]12.[Cl-].[Cl-] | – | > 64 | > 64 | > 64 | > 64 | 64 | 32 | > 64 | – | – | – | – | – | – | –
7 | C[C@@H](O)[C@H]1C(=O)N2C(C(=O)O)=C(CN3c4cccc5c(CC[N+]67CC[N+](CC(=O)Nc8ccccc8)(CC6)CC7)ccc(c45)S3(=O)=O)[C@H](C)[C@H]12.[Cl-].[Cl-] | 1.4 | 4 | 4 | 1.5 | 0.12 | – | – | 0.8 | – | – | 31 | 63 | – | – | –
8 | C[C@@H](O)[C@H]1C(=O)N2C(C(=O)O)=C(CN3c4cccc5cc(CC[N+]67CC[N+](CCCO)(CC6)CC7)cc(c45)S3(=O)=O)[C@H](C)[C@H]12.[Cl-].[Cl-] | 0.85 | 4 | 8 | 1.5 | 0.17 | – | – | 1.1 | – | – | – | – | – | – | –
9 | C[C@@H](O)[C@H]1C(=O)N2C(C(=O)O)=C(CN3c4cccc5cc(C[N+]67CC[N+](CC(N)=O)(CC6)CC7)cc(c45)S3(=O)=O)[C@H](C)[C@H]12.[Cl-].[Cl-] | 0.21 | 8 | 16 | 3 | 0.5 | 0.031 | 0.016 | 2 | – | – | – | – | – | – | –
10 | C[C@@H](O)[C@H]1C(=O)N2C(C(=O)O)=C(CN3c4cccc5c(CC[N+]67CC[N+](CCCO)(CC6)CC7)ccc(c45)S3(=O)=O)[C@H](C)[C@H]12.[Cl-].[Cl-] | 1.9 | 6.4 | 16 | 0.9 | 0.5 | – | – | 0.6 | – | – | 250 | > 500 | – | – | –
11 | C[C@@H](O)[C@H]1C(=O)N2C(C(=O)O)=C(CN3c4cccc5cc(CC[N+]67CC[N+](CC(=O)Nc8ccccc8)(CC6)CC7)cc(c45)S3(=O)=O)[C@H](C)[C@H]12.[Cl-].[Cl-] | 0.64 | 3.2 | 8 | 0.3 | 0.17 | – | – | 0.2 | – | – | <61 | 245 | – | – | –
12 | C[C@@H](O)[C@H]1C(=O)N2C(C(=O)O)=C(CN3c4cccc5ccc(CC[N+]67CC[N+](CC(N)=O)(CC6)CC7)c(c45)S3(=O)=O)[C@H](C)[C@H]12.[Cl-].[Cl-] | 0 | 10.1 | 8 | 1.2 | 0.35 | 0.016 | – | 0.9 | 0.016 | – | 16 | 63 | – | – | –
13 | CCC[N+]12CC[N+](CCc3ccc4c5c(cccc35)N(CC3=C(C(=O)O)N5C(=O)[C@H]([C@@H](C)O)[C@H]5[C@H]3C)S4(=O)=O)(CC1)CC2.[Cl-].[Cl-] | 1.93 | 6.4 | 16 | 4 | 0.25 | – | – | 2.2 | – | – | – | – | – | – | –
14 | C[C@@H](O)[C@H]1C(=O)N2C(C(=O)O)=C(CN3c4cccc5cc(CCC[N+]67CC[N+](CC(N)=O)(CC6)CC7)cc(c45)S3(=O)=O)[C@H](C)[C@H]12.[Cl-].[Cl-] | 1.25 | 6.4 | 16 | 4 | 0.5 | 0.031 | 0.016 | 2.2 | – | – | – | – | – | – | –
15 | C[C@@H](O)[C@H]1C(=O)N2C(C(=O)O)=C(CN3c4cccc5c(CCC[N+]67CC[N+](CC(N)=O)(CC6)CC7)ccc(c45)S3(=O)=O)[C@H](C)[C@H]12.[Cl-].[Cl-] | 2.64 | 4 | 8 | 3.5 | 0.25 | 0.031 | 0.016 | 2 | – | – | 125 | 500 | – | – | –
16 | C[C@@H](O)[C@H]1C(=O)N2C(C(=O)O)=C(CN3c4cccc5ccc(C[N+]67CC[N+](CC(N)=O)(CC6)CC7)c(c45)S3(=O)=O)[C@H](C)[C@H]12.[Cl-].[Cl-] | 0.01 | 20.2 | 16 | 4 | 0.71 | 0.031 | – | 2.5 | 0.016 | – | – | – | – | – | –
17 | CCC[N+]12CC[N+](CCc3cc4c5c(cccc5c3)N(CC3=C(C(=O)O)N5C(=O)[C@H]([C@@H](C)O)[C@H]5[C@H]3C)S4(=O)=O)(CC1)CC2.[Cl-].[Cl-] | – | 3.2 | 8 | 1.5 | 0.24 | – | – | 1 | – | – | – | – | – | – | –
18 | C[C@@H](O)[C@H]1C(=O)N2C(C(=O)O)=C(CN3c4ccc(CC[N+]56CC[N+](CC(N)=O)(CC5)CC6)c5cccc(c45)S3(=O)=O)[C@H](C)[C@H]12.[Cl-].[Cl-] | 0.74 | 16 | 32 | 12.1 | 1 | 0.062 | 0.062 | 8 | – | – | – | – | – | – | –
19 | C[C@@H](O)[C@H]1C(=O)N2C(C(=O)O)=C(CN3c4cccc5c(CC[N+]67CC[N+](CC(N)=O)(CC6)CC7)ccc(c45)S3(=O)=O)[C@H](C)[C@H]12.[Cl-].[Cl-] | 1.77 | – | – | 1 | 0.17 | – | 0.016 | 0.7 | – | – | 250 | > 500 | 8 | 0.031 | 4
20 | C[C@@H](O)[C@H]1C(=O)N2C(C(=O)O)=C(CN3c4cccc5cc(CC[N+]67CC[N+](CC(N)=O)(CC6)CC7)cc(c45)S3(=O)=O)[C@H](C)[C@H]12.[Cl-].[Cl-] | 0.75 | 3.2 | 8 | 0.6 | 0.17 | 0.016 | 0.016 | 0.5 | – | – | 125 | 500 | – | – | –
21 | C[C@@H](O)[C@H]1C(=O)N2C(C(=O)O)=C(CN3c4cccc5c(C[N+]67CC[N+](CC(N)=O)(CC6)CC7)ccc(c45)S3(=O)=O)[C@H](C)[C@H]12.[Cl-].[Cl-] | 0.74 | 8 | 16 | 1.5 | 0.5 | 0.031 | 0.031 | 1 | – | – | 250 | 500 | – | – | –
